Measurements taken from patent US20100021940A1, “Method for Determining the Activity of a Protease in a Sample” (ASTRAZENECA AB, priority 2006, published 2010).

How the values were obtained:
Experiment in all cases: Activity of purified MMP on substrate (reporter release)
MMP9 = assay type: biochemical, human
Source text: In order to confirm the specificity of the substrates for various MMPs, standard enzymatic assays were adapted to monitor the release of reporter. The reporter was either analysed by a LC-MS method as described in Example 3a, or by a LC-UV method as described in Example 4. […] The enzyme can be used to monitor activity of substrates as follows: […]

MMP8 = target: T1, MMP8 (Homo sapiens, UniProt P22894); assay type: biochemical
T1 construct: purchased Calbiochem
Experimental: In order to confirm the specificity of the substrates for various MMPs, standard enzymatic assays were adapted to monitor the release of reporter. The reporter was either analysed by a LC-MS method as described in Example 3a, or by a LC-UV method as described in Example 4. Purified pro-MMP8 is purchased from Calbiochem. The enzyme (at 10 μg/ml) is activated by p-amino-phenyl-mercuric acetate (APMA) at 1 mM for 2.5 h, 35° C. The activated enzyme can be used to monitor activity of substrates as follows: MMP8 (200 ng/ml final concentration) is incubated for 90 minutes at 35° C.

MMP19 = assay type: biochemical, human; details: 30 μM substrate; MMP Conc. 19 nM; AZL0095
Source text: In order to confirm the specificity of the substrates for various MMPs, standard enzymatic assays were adapted to monitor the release of reporter. The reporter was either analysed by a LC-MS method as described in Example 3a, or by a LC-UV method as described in Example 4.
Recombinant human MMP19 catalytic domain may be expressed and purified as described by Parkar A. A. et al, (2000), Protein Expression and Purification, 20:152. The purified enzyme can be used to monitor activity of substrates as follows: MMP19 (40 ng/ml […]) in assay buffer (0.1M “Tris-HCl” (trade mark) buffer, pH 7.3 containing 0.1M NaCl, 20 mM CaCl2, 0.020 mM ZnCl and 0.05% (w/v) “Brij 35” (trade mark) detergent) in the presence or absence of inhibitors. Activity is determined by measuring the release of reporter 4-nitroaniline by the using the method in Example 3a.

T1 sequence (P22894 101-467): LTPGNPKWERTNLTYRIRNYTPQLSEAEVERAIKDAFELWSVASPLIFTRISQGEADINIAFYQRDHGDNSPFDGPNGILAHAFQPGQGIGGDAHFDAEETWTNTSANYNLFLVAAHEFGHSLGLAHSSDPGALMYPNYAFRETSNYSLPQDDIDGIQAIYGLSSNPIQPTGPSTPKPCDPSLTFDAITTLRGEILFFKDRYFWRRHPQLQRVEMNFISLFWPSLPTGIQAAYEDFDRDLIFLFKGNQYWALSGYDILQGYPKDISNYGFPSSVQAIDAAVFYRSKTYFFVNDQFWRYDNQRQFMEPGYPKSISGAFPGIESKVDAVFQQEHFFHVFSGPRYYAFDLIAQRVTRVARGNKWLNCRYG

Q: For COC(=O)CCNC(=O)[C@H](CC(C)C)NC(=O)[C@@H](NC(=O)CNC(=O)[C@H](CC(C)C)NC(=O)[C@@H]1CCCN1C(C)=O)Nc1ccc([N+](=O)[O-])cc1 [Example 1.1, Methyl 1-acetyl-L-prolyl-L-leucylglycyl-α-R-(4-nitrophenylamino)-glycyl-L-leucyl-β-alaninate], which Activity (MMP9; 30 μM substrate, MMP Conc. 0.27 nM, AZL0064) is on record?
A: 7.4 units/s

Q: And the “Activity of selected substrates with MMPs” value (MMP9; Table 1b, MMP9)?
A: 62.9 units/s (molRXH/molEnz * s)

Q: What about the Activity (MMP8; 30 μM substrate, MMP Conc. 2.7 nM, Calbiochem #444229) of the same molecule?
A: 1.1 units/s

Q: And the “Activity of selected substrates with MMPs” value (MMP8; Table 1b, MMP8)?
A: 120.4 units/s (molRXH/molEnz * s)

Q: What about the Activity (MMP19) of the same molecule?
A: 0.13 units/s
